# Assay results as given in the supplement of paper PMC11451515.
# System: NOMO1
# Test: cell viability relative to DMSO control; higher = less cytotoxic
# Details: 48 h
# Summary of the method: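 NOMO1, SEM and P12-Ichikawa leukemia cells spent at least four passages adapting to each medium before use. They were seeded at 500 cells/well (NOMO1, SEM) or 1000 cells/well (P12-Ichikawa) in 5 μl in 1536-well plates and pin-dosed with library compounds in DMSO at 11 threefold steps from 47 μM down to 0.79 nM. After 48 h at 37°C, CellTiter-Glo One luminescence was read. Viability is reported as a percentage of the DMSO wells on each plate, with cell-free wells as background.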
# [1] = HPLM + 10% dialyzed FBS, 0.000781 µM
# [2] = HPLM + 10% dialyzed FBS, 0.00234 µM
# [3] = HPLM + 10% dialyzed FBS, 0.00702 µM
# [4] = HPLM + 10% dialyzed FBS, 0.0211 µM
# [5] = HPLM + 10% dialyzed FBS, 0.0632 µM
# [6] = HPLM + 10% dialyzed FBS, 0.19 µM
# [7] = HPLM + 10% dialyzed FBS, 0.569 µM
# [8] = HPLM + 10% dialyzed FBS, 1.71 µM
# [9] = HPLM + 10% dialyzed FBS, 5.12 µM
# [10] = HPLM + 10% dialyzed FBS, 15.4 µM
# [11] = HPLM + 10% dialyzed FBS, 46.1 µM
# [12] = RPMI 5 mM glucose + 10% FBS, 0.000781 µM
# [13] = RPMI 5 mM glucose + 10% FBS, 0.00234 µM
# [14] = RPMI 5 mM glucose + 10% FBS, 0.00702 µM
# [15] = RPMI 5 mM glucose + 10% FBS, 0.0211 µM
# [16] = RPMI 5 mM glucose + 10% FBS, 0.0632 µM
# [17] = RPMI 5 mM glucose + 10% FBS, 0.19 µM
# [18] = RPMI 5 mM glucose + 10% FBS, 0.569 µM
# [19] = RPMI 5 mM glucose + 10% FBS, 1.71 µM
# [20] = RPMI 5 mM glucose + 10% FBS, 5.12 µM
# [21] = RPMI 5 mM glucose + 10% FBS, 15.4 µM
# [22] = RPMI 5 mM glucose + 10% FBS, 46.1 µM
# [23] = RPMI 5 mM glucose + 10% dialyzed FBS, 0.000781 µM
# [24] = RPMI 5 mM glucose + 10% dialyzed FBS, 0.00234 µM
# [25] = RPMI 5 mM glucose + 10% dialyzed FBS, 0.00702 µM
# [26] = RPMI 5 mM glucose + 10% dialyzed FBS, 0.0211 µM
# [27] = RPMI 5 mM glucose + 10% dialyzed FBS, 0.0632 µM
# [28] = RPMI 5 mM glucose + 10% dialyzed FBS, 0.19 µM
# [29] = RPMI 5 mM glucose + 10% dialyzed FBS, 0.569 µM
# [30] = RPMI 5 mM glucose + 10% dialyzed FBS, 1.71 µM
# [31] = RPMI 5 mM glucose + 10% dialyzed FBS, 5.12 µM
# [32] = RPMI 5 mM glucose + 10% dialyzed FBS, 15.4 µM
# [33] = RPMI 5 mM glucose + 10% dialyzed FBS, 46.1 µM
compound,measurement,setting,value
CN[C@H]1CCC2=CC(=C(OC)C(=C2C/3=C/C=C(OC)\C(=O)/C=C13)OC)OC,cell viability,[1],119%
same,cell viability,[2],96%
same,cell viability,[3],75.2%
same,cell viability,[4],30.1%
same,cell viability,[5],32.9%
same,cell viability,[6],38.4%
same,cell viability,[7],43.5%
same,cell viability,[8],40.9%
same,cell viability,[9],31.4%
same,cell viability,[10],33.9%
same,cell viability,[11],25.8%
same,cell viability,[12],120%
same,cell viability,[13],109%
same,cell viability,[14],90.7%
same,cell viability,[15],22.8%
same,cell viability,[16],22.3%
same,cell viability,[17],24.5%
same,cell viability,[18],25.4%
same,cell viability,[19],22.4%
same,cell viability,[20],21.1%
same,cell viability,[21],17.1%
same,cell viability,[22],10.4%
same,cell viability,[23],108%
same,cell viability,[24],97.1%
same,cell viability,[25],102%
same,cell viability,[26],23.5%
same,cell viability,[27],31.9%
same,cell viability,[28],28.3%
same,cell viability,[29],27.9%
same,cell viability,[30],28.7%
same,cell viability,[31],23.1%
same,cell viability,[32],21.9%
same,cell viability,[33],14.3%
CC(C)N[C@@H]1CCn2c(=O)[nH]c3cccc(c32)[C@H]1O,cell viability,[12],119%
same,cell viability,[13],110%
same,cell viability,[14],121%
same,cell viability,[15],119%
same,cell viability,[16],111%
same,cell viability,[17],108%
same,cell viability,[18],117%
same,cell viability,[19],104%
same,cell viability,[20],105%
same,cell viability,[21],103%
same,cell viability,[22],55.6%
Clc1ccc(-c2nc3sccn3c2/C=N/OCc2ccc(Cl)c(Cl)c2)cc1,cell viability,[1],122%
same,cell viability,[2],113%
same,cell viability,[3],128%
same,cell viability,[4],126%
same,cell viability,[5],125%
same,cell viability,[6],110%
same,cell viability,[7],109%
same,cell viability,[8],108%
same,cell viability,[9],99.6%
same,cell viability,[10],101%
same,cell viability,[11],122%
same,cell viability,[12],121%
same,cell viability,[13],114%
same,cell viability,[14],117%
same,cell viability,[15],120%
same,cell viability,[16],112%
same,cell viability,[17],109%
same,cell viability,[18],101%
same,cell viability,[19],104%
same,cell viability,[20],117%
same,cell viability,[21],103%
same,cell viability,[22],108%
same,cell viability,[23],101%
same,cell viability,[24],110%
same,cell viability,[25],123%
same,cell viability,[26],125%
same,cell viability,[27],114%
same,cell viability,[28],98%
same,cell viability,[29],113%
same,cell viability,[30],114%
same,cell viability,[31],111%
same,cell viability,[32],99.8%
same,cell viability,[33],111%
Cc1onc(-c2ccccc2Cl)c1C(=O)N[C@@H]1C(=O)N2[C@@H]1SC(C)(C)[C@@H]2C(=O)[O-],cell viability,[1],104%
same,cell viability,[2],104%
same,cell viability,[3],123%
same,cell viability,[4],116%
same,cell viability,[5],98.9%
same,cell viability,[6],103%
same,cell viability,[7],105%
same,cell viability,[8],113%
same,cell viability,[9],92.8%
same,cell viability,[10],105%
same,cell viability,[11],84.7%
same,cell viability,[12],112%
same,cell viability,[13],119%
same,cell viability,[14],134%
same,cell viability,[15],110%
same,cell viability,[16],104%
same,cell viability,[17],115%
same,cell viability,[18],115%
same,cell viability,[19],107%
same,cell viability,[20],99.5%
same,cell viability,[21],97.9%
same,cell viability,[22],94.3%
same,cell viability,[23],117%
same,cell viability,[24],124%
same,cell viability,[25],123%
same,cell viability,[26],103%
same,cell viability,[27],111%
same,cell viability,[28],103%
same,cell viability,[29],102%
same,cell viability,[30],108%
same,cell viability,[31],110%
same,cell viability,[32],84.1%
same,cell viability,[33],96.3%
C[C@H]1COC2=C3N1\C=C(C(O)=O)/C(=O)C3=CC(=C2N4CCN(C)CC4)F,cell viability,[1],124%
same,cell viability,[2],123%
same,cell viability,[3],128%
same,cell viability,[4],114%
same,cell viability,[5],122%
same,cell viability,[6],106%
same,cell viability,[7],113%
same,cell viability,[8],108%
same,cell viability,[9],94.8%
same,cell viability,[10],85.9%
same,cell viability,[11],61%
same,cell viability,[23],122%
same,cell viability,[24],112%
same,cell viability,[25],127%
same,cell viability,[26],124%
same,cell viability,[27],124%
same,cell viability,[28],115%
same,cell viability,[29],112%
same,cell viability,[30],112%
same,cell viability,[31],98.1%
same,cell viability,[32],98.7%
same,cell viability,[33],72.9%
CN[C@@H]1[C@@H](O)[C@@H](O[C@@H]2[C@@H](O)[C@H](O[C@H]3O[C@H](CN)[C@@H](O)[C@H](O)[C@H]3O)[C@@H](N)C[C@H]2NC(=O)[C@@H](O)CN)OC[C@]1(C)O,cell viability,[1],120%
same,cell viability,[2],132%
same,cell viability,[3],115%
same,cell viability,[4],135%
same,cell viability,[5],148%
same,cell viability,[6],130%
same,cell viability,[7],140%
same,cell viability,[8],110%
same,cell viability,[9],113%
same,cell viability,[10],103%
same,cell viability,[11],120%
same,cell viability,[23],130%
same,cell viability,[24],115%
same,cell viability,[25],110%
same,cell viability,[26],127%
same,cell viability,[27],112%
same,cell viability,[28],132%
same,cell viability,[29],116%
same,cell viability,[30],107%
same,cell viability,[31],99.9%
same,cell viability,[32],117%
same,cell viability,[33],98.6%
COc1cc(OC2CCN(C)CC2)ccc1Nc1ncc2c(n1)n(C1CCCC1)c(=O)n2C,cell viability,[1],80.9%
same,cell viability,[2],86.8%
same,cell viability,[3],107%
same,cell viability,[4],85.9%
same,cell viability,[5],96.8%
same,cell viability,[6],90.8%
same,cell viability,[7],103%
same,cell viability,[8],108%
same,cell viability,[9],93.6%
same,cell viability,[10],87.7%
same,cell viability,[11],2.59%
same,cell viability,[12],82.7%
same,cell viability,[13],82.5%
same,cell viability,[14],75.4%
same,cell viability,[15],84.8%
same,cell viability,[16],78.1%
same,cell viability,[17],92.8%
same,cell viability,[18],83.2%
same,cell viability,[19],76.5%
same,cell viability,[20],81.1%
same,cell viability,[21],76.9%
same,cell viability,[22],18.4%
same,cell viability,[23],76.6%
same,cell viability,[24],88.9%
same,cell viability,[25],90.4%
same,cell viability,[26],83.6%
same,cell viability,[27],81.2%
same,cell viability,[28],95.2%
same,cell viability,[29],91.6%
same,cell viability,[30],100%
same,cell viability,[31],91.7%
same,cell viability,[32],60.4%
same,cell viability,[33],16.1%
CC1=C(C)C(=O)C(C(CCCCCC(=O)O)c2ccccc2)=C(C)C1=O (stereo not given),cell viability,[1],75.8%
same,cell viability,[2],78.1%
same,cell viability,[3],83.4%
same,cell viability,[4],93.9%
same,cell viability,[5],93.6%
same,cell viability,[6],109%
same,cell viability,[7],53.4%
same,cell viability,[8],97.9%
same,cell viability,[9],27.8%
same,cell viability,[10],27.1%
same,cell viability,[11],13.5%
same,cell viability,[12],68%
same,cell viability,[13],82.7%
same,cell viability,[14],70.7%
same,cell viability,[15],74.7%
same,cell viability,[16],74.9%
same,cell viability,[17],79.3%
same,cell viability,[18],76.1%
same,cell viability,[19],80.4%
same,cell viability,[20],19.6%
same,cell viability,[21],22.3%
same,cell viability,[22],12.5%
same,cell viability,[23],75.6%
same,cell viability,[24],78.9%
same,cell viability,[25],75%
same,cell viability,[26],87.7%
same,cell viability,[27],83.7%
same,cell viability,[28],84.2%
same,cell viability,[29],86.4%
same,cell viability,[30],78%
same,cell viability,[31],25.1%
same,cell viability,[32],27.4%
same,cell viability,[33],15%
